For data set [1], the system named is Entamoeba histolytica. The experiment in a line: Antimicrobial activity against Entamoeba histolytica HM1:MMS assessed as reduction in amoeba growth incubated for 72 hrs by microscopy analysis. Type of data set: functional, organism-based.
Data set [2] has as its system HEK293. The experiment in a line: Cytotoxicity against human HEK293 cells assessed as reduction in cell viability at 2.5 to 50 uM incubated for 48 hrs by MTT assay. The conditions noted are these: hek293, 48 h, dose 2.5-50 µM. The data set is classed as cell-based. In general terms: Tetrazolium dyes change colour on reduction, which living cells bring about.
For data set [3], the system named is HEK293. The experiment in a line: Cytotoxicity against human HEK293 cells assessed as reduction in cell viability at 100 uM incubated for 48 hrs by MTT assay. The data set is classed as cell-based. The conditions noted are these: hek293, 48 h.

What is called IC50 is the concentration at which inhibition is half-maximal. Regarding `CCCN1C(=O)/C(=C/c2ccc(OCCn3c([N+](=O)[O-])cnc3C)cc2)S/C1=N\c1ccccc1`, in data set [1], the IC50 came to 3620 nM.

On to `Cc1ncc([N+](=O)[O-])n1CCOc1ccc(/C=C2\S/C(=N\c3ccccc3)N(Cc3ccccc3)C2=O)cc1`, for which the IC50 in data set [1] was found to be 1650 nM. Also, the Activity entry in data set [2] and in data set [3] was “Non-Toxic” each time. With `Cc1ncc([N+](=O)[O-])n1CCOc1ccc(/C=C2\S/C(=N\c3ccccc3)N(Cc3ccccc3Cl)C2=O)cc1`, in data set [1], the IC50 was 2320 nM. In the case of `Cc1ncc([N+](=O)[O-])n1CCOc1ccc(/C=C2\S/C(=N\c3ccccc3)N(CCO)C2=O)cc1`, in data set [1], the IC50 stood at 180 nM. For the same compound, the Activity entry in data set [2] was “Non-Toxic”. For `COc1ccc(CN2C(=O)/C(=C/c3ccc(OCCn4c([N+](=O)[O-])cnc4C)cc3)S/C2=N\c2ccccc2)cc1OC` the same measures were 1050 nM and “Non-Toxic”.

`Cc1ncc([N+](=O)[O-])n1CCOc1ccc(/C=C2\S/C(=N\c3ccccc3)N(CC(C)C)C2=O)cc1`: the IC50 in data set [1] was 3950 nM. Turning to `Cc1ncc([N+](=O)[O-])n1CCOc1ccc(/C=C2\S/C(=N\c3ccccc3)N(Cc3ccco3)C2=O)cc1`, the IC50 in data set [1] is 640 nM. Moreover, the Activity entry in data set [2] is given as “Non-Toxic”. Consider `Cc1ncc([N+](=O)[O-])n1CCOc1ccc(/C=C2\S/C(=N\c3ccccc3)N(Cc3ccc(Cl)cc3Cl)C2=O)cc1`, for which, in data set [1], the IC50 stood at 2190 nM. Take `Cc1ncc([N+](=O)[O-])n1CCOc1ccc(/C=C2\S/C(=N\c3ccccc3)N(CC3CCCO3)C2=O)cc1` (stereo not drawn): the IC50 in data set [1] turned out to be 3100 nM.

Take `Cc1ncc([N+](=O)[O-])n1CCOc1ccc(/C=C2\S/C(=N\c3ccccc3)N(Cc3ccc(F)cc3)C2=O)cc1`: in data set [1], the IC50 turned out to be 2840 nM. Regarding `Cc1ncc([N+](=O)[O-])n1CCO` [METRONIDAZOLE], the Activity result in data set [2] is given as “Non-Toxic”.

As for `Cc1ncc([N+](=O)[O-])n1CCOc1ccc(/C=C2\S/C(=N\c3ccccc3)N(Cc3ccncc3)C2=O)cc1`, the IC50 in data set [1] stood at 370 nM. The Activity entry in data set [2] and in data set [3] was “Non-Toxic” throughout. Take `CCCCN1C(=O)/C(=C/c2ccc(OCCn3c([N+](=O)[O-])cnc3C)cc2)S/C1=N\c1ccccc1`: in data set [1], the IC50 came out at 4970 nM. As for `Cc1ncc([N+](=O)[O-])n1CCOc1ccc(/C=C2\S/C(=N\c3ccccc3)N(Cc3cccs3)C2=O)cc1`, the IC50 in data set [1] worked out at 1630 nM. The Activity result in data set [2] and in data set [3] was “Non-Toxic” in each case.

(Values after ChEMBL document CHEMBL4699500, “Synthesis of metronidazole based thiazolidinone analogs as promising antiamoebic agents” (Bioorg Med Chem Lett, 2020).)
